Reference: US20240109865A1, “INDAZOLE COMPOUNDS AS KINASE INHIBITORS” (TYRA BIOSCIENCES, INC., priority 2020, published 2024)
Structures can show the parent of a compound that is named as a salt.

Experiments:
[1] = test system: UM-UC-14 cells (FGFR3(S249C)); assay: UM-UC-14 cancer cell line cell viability assay (CellTiter-Glo 2.0); format: cell-based; conditions: UMUC14, 72 hours, Cell Titer Glo 2.0
Source text: (§1) Experimental Purpose: To detect the change of intracellular ATP by Cell Titer-Glo® and to evaluate the inhibitory effect of the compounds on cancer cell lines by determining the in vitro IC50 value of the compounds.
(§2) Cell Titer-Glo® 2.0 Luminescent cell viability assay reagent was purchased from Promega (Madison, WI). RT112/84 and KG-1 cell lines were purchased from American Type Culture Collection (Manassas, VA). UM-UC-14 cell line was purchased from Sigma (St. Louis, MO). RT112/84, UM-UC-14, and KG-1 cells were cultured in RPMI1640 media supplemented with 10% fetal bovine serum. Cultures were maintained at 37° C. in a humidified atmosphere of 5% C02 and 95% air.
(§3) Cell Viability Assay Procedure: Cells were plated in 96-well clear bottom/white plates (Corning #3903) at 10,000 cells/well in 100 μl of media, incubated overnight. The next day, test compound DMSO stock solutions were made at 10 mM and 2 μM final concentration. Compounds were then added to cells in a 9-dose, 10-fold dilution series starting at 30 μM with an HP 300e Digital Dispenser (each dose was applied in triplicate). DMSO was backfilled to each well up to 301 nL total volume of test compound+DMSO, and a total of 301 nL DMSO was added to a control/no test compound well in triplicate. The cells in cell culture plates were incubated with the compounds at 37° C. and 5% C02 for 72 hours. Then 50 μl of Cell Titer Glo 2.0 reagent was added to each well of the cell culture plates. The contents were covered from light and mixed on an orbital shaker at room temperature for 10 min. Luminescence was recorded by a Synergy H1 Microplate Reader (Biotek, Winooski, VT). Cells were assessed as a percentage of DMSO only treated control cells. Curves were plotted and IC50 values were calculated using the GraphPad Prism 8 program based on a sigmoidal dose-response equation (4 parameter).

[2] = molecular target: FGFR3-BAIAP2L1 Ba/F3 cells (Homo sapiens, UniProt P22607); assay: Ba/F3 cell viability assay (CellTiter-Glo 2.0), FGFR3-BAIAP2L1 Ba/F3; format: cell-based; conditions: for Ba/F3 FGFR1/FGFR3 Selectivity: FGFR3 > FGFR1 selectivity ratio in Ba/F3 FGFR fusion cell based assays; for IC50: read-out: Ba/F3 Cells FGFR3 (IC50 nM), FGFR3-BAIAP2L1 Ba/F3 cells, 48 hours, Cell Titer Glo 2.0
Outline: (§4)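 IL3-independent Ba/F3 lines driven by FGFR1-BCR or FGFR3-BAIAP2L1 fusions, in RPMI1640/10% FBS. 9-dose 10-fold series from 30 μM, triplicate, 48 h at 37 °C; viability by CellTiter-Glo 2.0 ATP luminescence relative to DMSO control, IC50 from 4-parameter sigmoidal fit.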

[3] = molecular target: FGFR4 (Homo sapiens (Human), UniProt P22455); assay: Kinase assay, binding constants (Kd), kinase-tagged T7 phage, qPCR
Outline: (§5)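 Competition binding: T7 phage-tagged kinase + biotin-ligand beads + compound (11 pts, 3-fold, 0.9% DMSO). Elution 30 min RT with free ligand; qPCR quantitation. Kd via Hill fit, slope −1.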

[4] = molecular target: FGFR3 (V555M) (Homo sapiens (Human), UniProt P22607, V555M); assay: as above; conditions: V555M mutant
Outline: as §5

[5] = molecular target: FGFR1 (Homo sapiens (Human), UniProt P11362); assay: as above
Outline: as §5

[6] = molecular target: FGFR2 (Homo sapiens (Human), UniProt P21802); assay: as above
Outline: as §5

[7] = molecular target: FGFR3 (Homo sapiens (Human), UniProt P22607); assay: as above
Outline: as §5

[8] = molecular target: FGFR1-BCR Ba/F3 cells (Homo sapiens, UniProt P11362); assay: Ba/F3 cell viability assay (CellTiter-Glo 2.0), FGFR1-BCR Ba/F3; format: cell-based; conditions: read-out: Ba/F3 Cells FGFR1 (IC50 nM), 48 hours, Cell Titer Glo 2.0
Outline: as §4

[9] = test system: KG-1 cells (FGFR1-fusion); assay: KG-1 cancer cell line cell viability assay (CellTiter-Glo 2.0); format: cell-based; conditions: Homo sapiens, 72 hours, Cell Titer Glo 2.0
Source text: as §1, §2, §3

[10] = test system: RT112/84 cells (FGFR3-fusion); assay: RT112/84 cancer cell line cell viability assay (CellTiter-Glo 2.0); format: cell-based; conditions: Homo sapiens, 72 hours, Cell Titer Glo 2.0
Source text: as §1, §2, §3

Chain of FGFR3-BAIAP2L1 Ba/F3 cells (P22607 23-806 limits assumed, change not shown): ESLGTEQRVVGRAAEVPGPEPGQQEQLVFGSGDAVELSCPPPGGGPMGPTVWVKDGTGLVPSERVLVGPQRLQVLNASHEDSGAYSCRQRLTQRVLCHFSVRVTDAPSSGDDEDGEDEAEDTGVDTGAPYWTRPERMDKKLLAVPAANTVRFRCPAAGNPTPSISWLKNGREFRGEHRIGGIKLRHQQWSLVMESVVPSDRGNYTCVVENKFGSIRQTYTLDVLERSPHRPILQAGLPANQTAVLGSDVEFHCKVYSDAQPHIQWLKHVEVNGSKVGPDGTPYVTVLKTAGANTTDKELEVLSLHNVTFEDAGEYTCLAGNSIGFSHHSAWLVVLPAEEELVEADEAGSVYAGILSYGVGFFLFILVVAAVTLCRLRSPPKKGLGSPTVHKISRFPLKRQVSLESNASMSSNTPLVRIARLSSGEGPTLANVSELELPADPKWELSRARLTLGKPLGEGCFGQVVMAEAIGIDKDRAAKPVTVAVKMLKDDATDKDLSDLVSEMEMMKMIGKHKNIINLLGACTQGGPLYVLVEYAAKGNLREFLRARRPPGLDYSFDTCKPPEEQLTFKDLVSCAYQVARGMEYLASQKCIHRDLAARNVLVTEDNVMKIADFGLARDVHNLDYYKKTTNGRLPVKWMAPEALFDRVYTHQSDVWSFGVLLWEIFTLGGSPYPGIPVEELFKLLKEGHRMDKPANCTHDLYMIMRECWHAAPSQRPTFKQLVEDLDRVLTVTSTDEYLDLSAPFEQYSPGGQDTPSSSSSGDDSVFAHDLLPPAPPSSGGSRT
Chain of FGFR3 (P22607 23-806): as the sequence (P22607 23-806 limits assumed, change not shown) above
Chain of FGFR1-BCR Ba/F3 cells (P11362 22-822 limits assumed, change not shown): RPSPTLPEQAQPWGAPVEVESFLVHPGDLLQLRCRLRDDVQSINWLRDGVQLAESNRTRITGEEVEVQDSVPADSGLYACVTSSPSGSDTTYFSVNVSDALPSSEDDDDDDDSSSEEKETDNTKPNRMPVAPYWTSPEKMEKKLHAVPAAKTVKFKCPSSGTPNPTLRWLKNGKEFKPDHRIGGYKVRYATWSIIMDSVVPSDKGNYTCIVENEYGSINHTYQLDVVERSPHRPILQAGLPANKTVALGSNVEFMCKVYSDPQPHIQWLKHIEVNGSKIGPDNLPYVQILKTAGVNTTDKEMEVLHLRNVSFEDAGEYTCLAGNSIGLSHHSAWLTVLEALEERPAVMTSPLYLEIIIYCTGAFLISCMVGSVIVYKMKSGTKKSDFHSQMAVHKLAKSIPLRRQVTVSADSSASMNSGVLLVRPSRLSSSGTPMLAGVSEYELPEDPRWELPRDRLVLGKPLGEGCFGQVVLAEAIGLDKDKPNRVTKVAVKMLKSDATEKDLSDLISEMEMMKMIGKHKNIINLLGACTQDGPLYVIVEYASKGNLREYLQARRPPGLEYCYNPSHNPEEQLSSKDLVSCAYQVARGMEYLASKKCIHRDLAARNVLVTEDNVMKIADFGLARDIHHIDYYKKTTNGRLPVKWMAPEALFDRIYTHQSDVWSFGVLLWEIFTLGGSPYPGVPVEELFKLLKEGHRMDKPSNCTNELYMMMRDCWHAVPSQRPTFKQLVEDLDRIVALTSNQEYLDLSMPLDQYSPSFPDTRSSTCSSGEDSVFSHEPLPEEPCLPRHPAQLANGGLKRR
Chain of FGFR1 (P11362 22-822): as the sequence (P11362 22-822 limits assumed, change not shown) above
Chain of FGFR4 (P22455 22-802): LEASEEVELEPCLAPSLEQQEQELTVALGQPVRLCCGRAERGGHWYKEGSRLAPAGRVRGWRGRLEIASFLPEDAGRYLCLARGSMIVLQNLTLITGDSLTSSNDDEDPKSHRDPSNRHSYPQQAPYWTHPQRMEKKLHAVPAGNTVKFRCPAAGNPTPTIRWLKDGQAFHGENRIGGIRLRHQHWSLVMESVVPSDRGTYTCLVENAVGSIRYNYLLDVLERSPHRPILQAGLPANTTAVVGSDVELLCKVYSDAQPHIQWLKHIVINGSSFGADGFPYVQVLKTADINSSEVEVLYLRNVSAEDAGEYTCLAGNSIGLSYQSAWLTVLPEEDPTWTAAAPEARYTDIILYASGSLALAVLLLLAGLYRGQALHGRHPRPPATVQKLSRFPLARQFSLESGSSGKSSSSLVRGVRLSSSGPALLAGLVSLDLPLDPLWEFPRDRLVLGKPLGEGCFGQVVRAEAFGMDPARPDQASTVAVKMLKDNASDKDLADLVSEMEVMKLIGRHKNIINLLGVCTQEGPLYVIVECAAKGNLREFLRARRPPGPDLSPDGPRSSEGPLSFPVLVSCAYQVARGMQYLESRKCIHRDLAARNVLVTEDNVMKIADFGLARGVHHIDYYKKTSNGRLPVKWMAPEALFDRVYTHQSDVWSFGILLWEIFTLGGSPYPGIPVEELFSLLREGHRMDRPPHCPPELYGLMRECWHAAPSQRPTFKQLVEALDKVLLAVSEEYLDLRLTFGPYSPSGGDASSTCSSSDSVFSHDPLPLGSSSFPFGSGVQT
Chain of FGFR2 (P21802 22-821): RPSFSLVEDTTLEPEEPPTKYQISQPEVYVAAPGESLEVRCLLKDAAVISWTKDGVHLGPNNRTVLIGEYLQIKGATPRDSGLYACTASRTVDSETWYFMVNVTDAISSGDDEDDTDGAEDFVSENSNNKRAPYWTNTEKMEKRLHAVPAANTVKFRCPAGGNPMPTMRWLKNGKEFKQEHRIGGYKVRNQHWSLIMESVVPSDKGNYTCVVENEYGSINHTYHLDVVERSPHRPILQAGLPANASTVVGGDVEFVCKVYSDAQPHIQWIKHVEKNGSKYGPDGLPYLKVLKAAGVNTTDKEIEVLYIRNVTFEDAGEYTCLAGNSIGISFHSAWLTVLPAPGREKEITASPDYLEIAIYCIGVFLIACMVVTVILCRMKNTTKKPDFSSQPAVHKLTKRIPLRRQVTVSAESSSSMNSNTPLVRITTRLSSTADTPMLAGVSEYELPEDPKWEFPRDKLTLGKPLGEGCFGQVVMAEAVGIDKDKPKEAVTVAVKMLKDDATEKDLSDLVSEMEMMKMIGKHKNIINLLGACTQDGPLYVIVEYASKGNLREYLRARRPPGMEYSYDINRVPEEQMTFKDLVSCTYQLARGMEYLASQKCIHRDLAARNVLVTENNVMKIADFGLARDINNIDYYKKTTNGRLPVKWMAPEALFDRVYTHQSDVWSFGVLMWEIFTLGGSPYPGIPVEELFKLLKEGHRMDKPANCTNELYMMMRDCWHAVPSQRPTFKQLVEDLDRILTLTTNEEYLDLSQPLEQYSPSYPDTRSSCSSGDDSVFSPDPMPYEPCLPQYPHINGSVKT
Chain of FGFR3 (V555M) (P22607 23-806 V555M): as the sequence (P22607 23-806 limits assumed, change not shown) above, with V533M counted along it

SMILES	IC50 [1] [nM]	Ba/F3 FGFR1/FGFR3 Selectivity [2]	IC50 [2] [nM]	Kd [3] [nM]	Kd [4] [nM]	Kd [5] [nM]	Kd [6] [nM]	Kd [7] [nM]	IC50 [8] [nM]	IC50 [9] [nM]	IC50 [10] [nM]
C[C@@H](Oc1ccc2[nH]nc(-c3ccc(N4CCNCC4)nc3)c2c1)c1c(Cl)cncc1Cl [Example 2, (R)-5-(1-(3,5-Dichloropyridin-4-yl)ethoxy)-3-(6-(piperazin-1-yl)pyridin-3-yl)-1H-indazole dihydrochloride]	1 to 20	15	1 to 20	1 to 20	1 to 20	1 to 20	1 to 20	1 to 20	100 to 300		
CC(Oc1ccc2[nH]nc(-c3ccc(N4CC5(C4)CN(S(C)(=O)=O)C5)nc3)c2c1)c1c(Cl)ccnc1Cl (centres unmarked) [Example 109, 5-[1-(2,4-dichloro-3-pyridyl)ethoxy]-3-[6-(2-methylsulfonyl-2,6-diazaspiro[3.3]heptan-6-yl)-3-pyridyl]-1H-indazole]		12	1 to 20	1 to 20	1 to 20	20 to 100	1 to 20	1 to 20	100 to 300	100 to 300	20 to 100
C[C@@H](Oc1ccc2[nH]nc(-c3ccc(N4CC5(CCN(S(C)(=O)=O)C5)C4)nc3)c2c1)c1c(Cl)cncc1Cl [Example 115, 5-[(1R)-1-(3,5-dichloro-4-pyridyl)ethoxy]-3-[6-(7-methylsulfonyl-2,7-diazaspiro[3.4]octan-2-yl)-3-pyridyl]-1H-indazole]		14	1 to 20	1 to 20	1 to 20	1 to 20	1 to 20	1 to 20	20 to 100	100 to 300	1 to 20
C[C@@H](Oc1ccc2[nH]nc(-c3ccc(N4CC5(CCS(=O)(=O)C5)C4)nc3)c2c1)c1c(Cl)cncc1Cl [Example 117, 2-[5-[5-[(1R)-1-(3,5-dichloro-4-pyridyl)ethoxy]-1H-indazol-3-yl]-2-pyridyl]-6λ^6-thia-2-azaspiro[3.4]octane 6,6-dioxide]		15	1 to 20	1 to 20	1 to 20	1 to 20	1 to 20	1 to 20	20 to 100	20 to 100	1 to 20
C[C@@H](Oc1ccc2[nH]nc(-c3cnc(N4CC5(C4)CN(S(C)(=O)=O)C5)nc3)c2c1)c1c(Cl)cncc1Cl [Example 119, 5-[(1R)-1-(3,5-dichloro-4-pyridyl)ethoxy]-3-[2-(2-methylsulfonyl-2,6-diazaspiro[3.3]heptan-6-yl)pyrimidin-5-yl]-1H-indazole]		9	1 to 20	1 to 20	1 to 20	20 to 100	20 to 100	1 to 20	20 to 100	100 to 300	20 to 100
CC(C)S(=O)(=O)N1CC2(CN(c3ncc(-c4n[nH]c5ccc(O[C@H](C)c6c(Cl)cncc6Cl)cc45)cn3)C2)C1 [Example 120, 5-[(1R)-1-(3,5-dichloro-4-pyridyl)ethoxy]-3-[2-(2-isopropylsulfonyl-2,6-diazaspiro[3.3]heptan-6-yl)pyrimidin-5-yl]-1H-indazole]		7	20 to 100	1 to 20	1 to 20	20 to 100	20 to 100	1 to 20	100 to 300	> 300	20 to 100
